Source: ChEMBL document CHEMBL2150911, “Charting, navigating, and populating natural product chemical space for drug discovery” (J Med Chem, 2012)

Columns and labels:
[1] = target: T1, Polyunsaturated fatty acid 5-lipoxygenase (Homo sapiens, UniProt P09917); experiment: Inhibition of 5-LOX
T1 sequence (P09917 whole entry): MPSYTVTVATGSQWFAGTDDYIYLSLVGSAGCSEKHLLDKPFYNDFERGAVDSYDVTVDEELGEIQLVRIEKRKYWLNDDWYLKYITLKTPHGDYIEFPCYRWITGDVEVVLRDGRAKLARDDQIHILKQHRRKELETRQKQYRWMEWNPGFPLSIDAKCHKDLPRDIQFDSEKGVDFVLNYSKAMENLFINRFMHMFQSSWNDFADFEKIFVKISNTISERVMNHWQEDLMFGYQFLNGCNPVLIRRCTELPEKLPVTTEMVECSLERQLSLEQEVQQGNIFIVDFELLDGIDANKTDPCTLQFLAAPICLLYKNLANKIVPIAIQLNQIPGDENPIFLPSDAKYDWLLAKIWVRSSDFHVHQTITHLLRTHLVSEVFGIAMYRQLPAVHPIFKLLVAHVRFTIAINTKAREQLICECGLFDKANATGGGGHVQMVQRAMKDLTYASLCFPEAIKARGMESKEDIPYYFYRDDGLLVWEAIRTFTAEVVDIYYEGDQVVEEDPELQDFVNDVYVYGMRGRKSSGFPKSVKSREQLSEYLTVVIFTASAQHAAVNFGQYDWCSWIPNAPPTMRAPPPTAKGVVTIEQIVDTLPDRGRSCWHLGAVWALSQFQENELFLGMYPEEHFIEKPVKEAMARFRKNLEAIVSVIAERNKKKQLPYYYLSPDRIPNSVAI

[2] = target: T2, M-phase inducer phosphatase 1 (Homo sapiens, UniProt P30304); experiment: Inhibition of His-tagged Cdc25A expressed in the Escherichia coli BL21(DE3) using p-nitrophenyl phosphate as substrate for 80 mins by spectrophotometry
T2 sequence (P30304 whole entry): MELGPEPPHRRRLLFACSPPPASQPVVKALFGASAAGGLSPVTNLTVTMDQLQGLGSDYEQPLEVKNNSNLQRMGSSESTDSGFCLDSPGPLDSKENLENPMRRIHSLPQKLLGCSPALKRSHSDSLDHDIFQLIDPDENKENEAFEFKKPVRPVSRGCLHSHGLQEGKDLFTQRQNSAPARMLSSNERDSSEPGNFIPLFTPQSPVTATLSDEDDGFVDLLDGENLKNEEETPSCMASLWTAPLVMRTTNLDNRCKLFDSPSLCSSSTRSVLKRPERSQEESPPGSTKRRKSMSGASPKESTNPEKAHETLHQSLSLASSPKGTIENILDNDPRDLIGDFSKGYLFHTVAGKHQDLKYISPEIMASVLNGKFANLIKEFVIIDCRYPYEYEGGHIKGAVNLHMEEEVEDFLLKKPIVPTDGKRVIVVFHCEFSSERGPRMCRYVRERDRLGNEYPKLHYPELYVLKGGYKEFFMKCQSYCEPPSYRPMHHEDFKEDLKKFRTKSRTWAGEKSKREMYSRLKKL

| SMILES | IC50 [1] [µM] | IC50 [2] [µM] |
| --- | --- | --- |
| c1ccc(COc2ccc3ccccc3c2)cc1 | 7.5 | – |
| COC1(c2cccc(COc3ccc4ccccc4c3)c2)CCOCC1 | 1.5 | – |
| CC(c1ccc(OCc2ccccc2)cc1)N(O)C(N)=O (centres undefined) | 0.36 | – |
| COC(=O)[C@@H]1[C@H]2C[C@H]3c4[nH]c5ccccc5c4CCN3C[C@@H]2CC[C@@H]1O [YOHIMBINE] | – | 22.3 |
